In ChEMBL document CHEMBL5465560, “Selectivity Literature for EUbOPEN Chemogenomic Library” (2024):

Legend:
[1] = biological target: T1, Gamma-aminobutyric acid receptor subunit alpha-1 (Homo sapiens) (UniProt P14867); experiment: Selectivity interaction (Eurofins CEREP Diversity Profile (receptors and ion channels)) EUB0000279b GABRA1; conditions: at 10 µM
T1 sequence (whole entry): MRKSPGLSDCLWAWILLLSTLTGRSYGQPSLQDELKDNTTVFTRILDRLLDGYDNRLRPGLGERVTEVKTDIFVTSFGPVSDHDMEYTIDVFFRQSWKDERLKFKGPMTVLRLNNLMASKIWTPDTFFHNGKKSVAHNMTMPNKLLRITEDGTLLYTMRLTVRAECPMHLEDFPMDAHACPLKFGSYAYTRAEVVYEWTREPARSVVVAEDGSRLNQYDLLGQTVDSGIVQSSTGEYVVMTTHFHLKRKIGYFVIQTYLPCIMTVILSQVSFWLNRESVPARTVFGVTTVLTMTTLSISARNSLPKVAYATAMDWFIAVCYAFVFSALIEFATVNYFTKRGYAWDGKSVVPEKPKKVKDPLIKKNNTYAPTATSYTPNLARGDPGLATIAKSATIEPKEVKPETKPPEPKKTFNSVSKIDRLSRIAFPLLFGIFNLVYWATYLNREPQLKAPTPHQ

[2] = biological target: DNA (cytosine-5)-methyltransferase 3A (Homo sapiens) (UniProt Q9Y6K1); experiment: Selectivity interaction (Transferase panel (protein, RNA, and DNA methyltransferases. and EP300 (acetyltransferase))) EUB0000270b DNMT3A
[3] = biological target: Ephrin type-A receptor 7 (Homo sapiens) (UniProt Q15375); experiment: Selectivity interaction (KinomeScan (DiscoverX)) EUB0000092b EPHA7; conditions: at 10 µM
[4] = biological target: Macrophage-stimulating protein receptor (Homo sapiens, UniProt Q04912); experiment: Selectivity interaction (KinomeScan (DiscoverX)) EUB0000618a MST1R; conditions: at 10 µM
[5] = biological target: Serine/threonine-protein kinase SIK1 (Homo sapiens) (UniProt P57059); experiment: Selectivity interaction (KinomeScan (DiscoverX)) EUB0000618a SIK1; conditions: at 10 µM
[6] = biological target: T2, Protein kinase C epsilon type (Homo sapiens) (UniProt Q02156); experiment: Selectivity interaction (KinomeScan (DiscoverX)) EUB0000655a PRKCE; conditions: at 10 µM
T2 sequence (whole entry): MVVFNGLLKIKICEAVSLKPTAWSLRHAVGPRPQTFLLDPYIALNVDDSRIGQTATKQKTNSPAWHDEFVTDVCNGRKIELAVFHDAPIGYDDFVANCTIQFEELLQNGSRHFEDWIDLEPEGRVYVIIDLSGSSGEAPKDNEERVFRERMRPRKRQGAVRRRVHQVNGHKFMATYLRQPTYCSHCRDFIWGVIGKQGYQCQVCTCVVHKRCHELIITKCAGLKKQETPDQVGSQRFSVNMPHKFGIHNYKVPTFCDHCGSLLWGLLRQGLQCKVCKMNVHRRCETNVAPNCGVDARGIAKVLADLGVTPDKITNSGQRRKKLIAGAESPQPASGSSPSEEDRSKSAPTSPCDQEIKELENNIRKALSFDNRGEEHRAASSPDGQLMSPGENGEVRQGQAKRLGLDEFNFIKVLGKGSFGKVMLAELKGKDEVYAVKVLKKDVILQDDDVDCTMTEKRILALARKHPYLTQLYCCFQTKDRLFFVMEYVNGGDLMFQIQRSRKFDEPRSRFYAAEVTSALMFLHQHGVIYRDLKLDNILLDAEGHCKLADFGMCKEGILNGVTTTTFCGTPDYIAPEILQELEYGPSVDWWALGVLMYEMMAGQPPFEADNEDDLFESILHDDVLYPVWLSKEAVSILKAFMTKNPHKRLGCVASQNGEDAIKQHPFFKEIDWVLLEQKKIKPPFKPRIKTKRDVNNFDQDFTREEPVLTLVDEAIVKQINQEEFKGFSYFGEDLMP

[7] = biological target: Serine/threonine-protein kinase SIK3 (Homo sapiens) (UniProt Q9Y2K2); experiment: Selectivity interaction (KinomeScan (DiscoverX)) EUB0000655a SIK3; conditions: at 10 µM
[8] = biological target: T3, Mitogen-activated protein kinase kinase kinase 5 (Homo sapiens) (UniProt Q99683); experiment: Selectivity interaction (ProQinase) EUB0000171b MAP3K5
T3 sequence (whole entry): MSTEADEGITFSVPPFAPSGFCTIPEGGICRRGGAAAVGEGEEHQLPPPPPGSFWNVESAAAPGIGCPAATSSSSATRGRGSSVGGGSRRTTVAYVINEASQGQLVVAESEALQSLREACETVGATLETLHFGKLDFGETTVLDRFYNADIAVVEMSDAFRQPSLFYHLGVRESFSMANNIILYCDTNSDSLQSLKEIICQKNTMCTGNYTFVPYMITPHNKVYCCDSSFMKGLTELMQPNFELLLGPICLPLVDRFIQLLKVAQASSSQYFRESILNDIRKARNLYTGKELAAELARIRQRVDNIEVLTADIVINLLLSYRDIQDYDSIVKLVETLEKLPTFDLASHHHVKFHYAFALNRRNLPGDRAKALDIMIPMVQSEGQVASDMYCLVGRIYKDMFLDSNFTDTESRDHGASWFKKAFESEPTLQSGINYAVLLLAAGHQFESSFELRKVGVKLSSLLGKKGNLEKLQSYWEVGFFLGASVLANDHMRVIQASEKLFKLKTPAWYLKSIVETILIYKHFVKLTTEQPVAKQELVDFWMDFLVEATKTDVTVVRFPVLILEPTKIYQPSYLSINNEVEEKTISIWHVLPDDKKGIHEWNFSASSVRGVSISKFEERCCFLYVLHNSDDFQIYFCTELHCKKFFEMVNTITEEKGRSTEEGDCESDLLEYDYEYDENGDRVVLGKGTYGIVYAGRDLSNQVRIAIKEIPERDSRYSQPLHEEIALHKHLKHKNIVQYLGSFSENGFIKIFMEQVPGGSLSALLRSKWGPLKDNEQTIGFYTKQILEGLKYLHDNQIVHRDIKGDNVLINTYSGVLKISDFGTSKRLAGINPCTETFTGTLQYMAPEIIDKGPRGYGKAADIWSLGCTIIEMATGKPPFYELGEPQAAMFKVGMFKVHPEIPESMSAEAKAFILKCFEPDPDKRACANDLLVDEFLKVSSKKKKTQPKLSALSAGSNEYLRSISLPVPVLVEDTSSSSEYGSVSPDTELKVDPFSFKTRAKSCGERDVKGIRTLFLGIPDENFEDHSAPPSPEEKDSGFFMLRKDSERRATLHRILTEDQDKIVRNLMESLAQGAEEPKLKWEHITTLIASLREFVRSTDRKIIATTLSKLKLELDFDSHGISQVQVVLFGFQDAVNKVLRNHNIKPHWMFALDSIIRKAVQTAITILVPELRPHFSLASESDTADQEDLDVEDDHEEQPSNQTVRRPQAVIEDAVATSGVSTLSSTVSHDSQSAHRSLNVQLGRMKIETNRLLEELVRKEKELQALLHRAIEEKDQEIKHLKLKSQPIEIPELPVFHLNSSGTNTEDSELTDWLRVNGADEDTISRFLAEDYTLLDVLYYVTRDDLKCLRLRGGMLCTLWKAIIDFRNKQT

Chain of DNA (cytosine-5)-methyltransferase 3A (Homo sapiens) (Q9Y6K1 whole entry, looked up): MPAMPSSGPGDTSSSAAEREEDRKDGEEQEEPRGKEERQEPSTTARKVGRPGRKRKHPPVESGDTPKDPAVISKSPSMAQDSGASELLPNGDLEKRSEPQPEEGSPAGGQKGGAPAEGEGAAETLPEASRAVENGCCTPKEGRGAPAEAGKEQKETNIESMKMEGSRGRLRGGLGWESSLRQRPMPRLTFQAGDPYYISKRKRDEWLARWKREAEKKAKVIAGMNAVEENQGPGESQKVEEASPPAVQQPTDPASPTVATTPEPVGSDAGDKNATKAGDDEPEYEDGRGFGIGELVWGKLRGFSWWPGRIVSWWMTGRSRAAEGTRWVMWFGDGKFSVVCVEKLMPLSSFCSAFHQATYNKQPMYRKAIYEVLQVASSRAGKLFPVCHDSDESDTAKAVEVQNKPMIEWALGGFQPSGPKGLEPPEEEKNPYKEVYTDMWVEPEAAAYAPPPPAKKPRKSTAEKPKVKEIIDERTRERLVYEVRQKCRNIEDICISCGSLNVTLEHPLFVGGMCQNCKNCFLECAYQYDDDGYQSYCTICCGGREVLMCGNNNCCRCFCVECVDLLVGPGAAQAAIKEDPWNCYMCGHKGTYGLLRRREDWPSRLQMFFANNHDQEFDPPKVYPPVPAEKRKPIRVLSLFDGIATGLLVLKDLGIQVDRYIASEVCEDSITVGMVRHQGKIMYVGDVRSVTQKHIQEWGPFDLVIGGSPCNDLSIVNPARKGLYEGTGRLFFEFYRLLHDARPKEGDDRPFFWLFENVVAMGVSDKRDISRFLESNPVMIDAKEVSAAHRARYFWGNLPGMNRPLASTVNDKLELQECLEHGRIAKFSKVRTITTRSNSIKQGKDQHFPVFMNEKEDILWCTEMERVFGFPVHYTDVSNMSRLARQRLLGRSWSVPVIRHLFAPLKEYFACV
Chain of Serine/threonine-protein kinase SIK3 (Homo sapiens) (Q9Y2K2 whole entry, looked up): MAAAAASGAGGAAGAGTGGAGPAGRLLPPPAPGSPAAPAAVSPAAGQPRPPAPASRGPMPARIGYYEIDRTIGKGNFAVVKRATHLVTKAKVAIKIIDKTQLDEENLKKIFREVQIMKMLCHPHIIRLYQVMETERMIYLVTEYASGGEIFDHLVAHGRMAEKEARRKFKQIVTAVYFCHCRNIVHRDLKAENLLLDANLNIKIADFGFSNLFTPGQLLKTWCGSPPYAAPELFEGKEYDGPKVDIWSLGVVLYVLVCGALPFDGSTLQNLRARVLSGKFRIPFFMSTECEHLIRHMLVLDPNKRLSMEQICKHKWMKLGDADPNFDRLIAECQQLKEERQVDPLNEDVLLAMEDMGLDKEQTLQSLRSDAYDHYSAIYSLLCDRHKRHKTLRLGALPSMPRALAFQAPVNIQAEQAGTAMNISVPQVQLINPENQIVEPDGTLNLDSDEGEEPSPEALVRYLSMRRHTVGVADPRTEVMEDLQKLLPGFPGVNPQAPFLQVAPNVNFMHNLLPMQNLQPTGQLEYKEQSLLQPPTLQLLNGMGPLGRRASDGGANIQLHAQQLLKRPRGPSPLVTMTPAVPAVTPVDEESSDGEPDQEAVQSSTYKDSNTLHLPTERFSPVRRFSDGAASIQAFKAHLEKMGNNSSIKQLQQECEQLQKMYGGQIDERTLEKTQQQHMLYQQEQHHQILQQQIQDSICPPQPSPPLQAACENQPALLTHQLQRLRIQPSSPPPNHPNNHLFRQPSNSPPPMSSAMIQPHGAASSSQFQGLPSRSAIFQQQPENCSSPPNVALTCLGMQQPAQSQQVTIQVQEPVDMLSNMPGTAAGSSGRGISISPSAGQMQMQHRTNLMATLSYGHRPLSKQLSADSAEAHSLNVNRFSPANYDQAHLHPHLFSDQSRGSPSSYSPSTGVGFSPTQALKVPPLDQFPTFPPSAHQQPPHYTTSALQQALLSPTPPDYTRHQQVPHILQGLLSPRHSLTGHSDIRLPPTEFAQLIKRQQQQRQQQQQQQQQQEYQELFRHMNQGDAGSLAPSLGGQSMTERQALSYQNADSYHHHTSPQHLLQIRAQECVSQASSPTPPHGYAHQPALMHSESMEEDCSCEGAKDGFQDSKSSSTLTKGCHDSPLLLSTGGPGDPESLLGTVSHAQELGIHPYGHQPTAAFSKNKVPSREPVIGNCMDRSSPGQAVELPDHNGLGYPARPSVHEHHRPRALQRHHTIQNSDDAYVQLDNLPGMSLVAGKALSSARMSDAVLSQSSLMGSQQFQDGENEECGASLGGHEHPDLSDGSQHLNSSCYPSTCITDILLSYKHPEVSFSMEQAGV
Chain of Macrophage-stimulating protein receptor (Q04912 25-304 limits assumed): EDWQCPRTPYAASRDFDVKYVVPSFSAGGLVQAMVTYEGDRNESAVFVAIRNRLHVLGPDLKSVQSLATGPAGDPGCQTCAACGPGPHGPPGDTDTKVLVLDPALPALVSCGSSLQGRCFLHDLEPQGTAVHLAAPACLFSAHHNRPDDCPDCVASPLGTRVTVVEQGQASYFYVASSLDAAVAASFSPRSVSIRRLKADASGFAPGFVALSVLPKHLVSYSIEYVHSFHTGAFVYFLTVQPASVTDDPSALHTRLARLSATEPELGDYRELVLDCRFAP
Chain of Macrophage-stimulating protein receptor (Q04912 310-1400 limits assumed): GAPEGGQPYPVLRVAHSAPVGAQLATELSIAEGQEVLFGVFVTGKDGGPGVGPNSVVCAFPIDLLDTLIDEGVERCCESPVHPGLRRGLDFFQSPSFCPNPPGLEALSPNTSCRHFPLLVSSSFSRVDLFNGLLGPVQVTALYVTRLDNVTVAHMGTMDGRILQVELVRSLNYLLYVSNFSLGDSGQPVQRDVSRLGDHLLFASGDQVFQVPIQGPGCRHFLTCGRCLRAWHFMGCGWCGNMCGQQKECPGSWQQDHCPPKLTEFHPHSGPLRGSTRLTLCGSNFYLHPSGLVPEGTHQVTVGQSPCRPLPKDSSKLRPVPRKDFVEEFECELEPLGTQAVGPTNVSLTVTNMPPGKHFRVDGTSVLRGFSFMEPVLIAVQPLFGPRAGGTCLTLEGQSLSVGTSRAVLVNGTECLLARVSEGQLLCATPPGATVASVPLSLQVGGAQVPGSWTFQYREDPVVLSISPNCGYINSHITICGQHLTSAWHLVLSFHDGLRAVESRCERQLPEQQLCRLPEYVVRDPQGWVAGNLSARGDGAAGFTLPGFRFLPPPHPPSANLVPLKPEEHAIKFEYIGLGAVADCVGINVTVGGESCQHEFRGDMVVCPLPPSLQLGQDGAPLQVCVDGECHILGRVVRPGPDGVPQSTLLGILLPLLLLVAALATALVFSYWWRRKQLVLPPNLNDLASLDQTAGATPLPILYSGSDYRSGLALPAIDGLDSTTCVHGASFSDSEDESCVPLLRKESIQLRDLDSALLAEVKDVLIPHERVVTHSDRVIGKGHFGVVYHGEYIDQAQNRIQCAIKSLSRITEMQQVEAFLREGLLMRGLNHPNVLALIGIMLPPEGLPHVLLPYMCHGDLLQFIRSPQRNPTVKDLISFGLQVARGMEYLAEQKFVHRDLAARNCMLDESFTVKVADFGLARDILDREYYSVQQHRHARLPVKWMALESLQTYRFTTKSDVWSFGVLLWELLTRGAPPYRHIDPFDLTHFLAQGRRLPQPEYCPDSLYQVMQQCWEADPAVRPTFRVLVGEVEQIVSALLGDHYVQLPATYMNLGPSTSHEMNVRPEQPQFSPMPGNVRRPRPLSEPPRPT
Chain of Serine/threonine-protein kinase SIK1 (Homo sapiens) (P57059 whole entry): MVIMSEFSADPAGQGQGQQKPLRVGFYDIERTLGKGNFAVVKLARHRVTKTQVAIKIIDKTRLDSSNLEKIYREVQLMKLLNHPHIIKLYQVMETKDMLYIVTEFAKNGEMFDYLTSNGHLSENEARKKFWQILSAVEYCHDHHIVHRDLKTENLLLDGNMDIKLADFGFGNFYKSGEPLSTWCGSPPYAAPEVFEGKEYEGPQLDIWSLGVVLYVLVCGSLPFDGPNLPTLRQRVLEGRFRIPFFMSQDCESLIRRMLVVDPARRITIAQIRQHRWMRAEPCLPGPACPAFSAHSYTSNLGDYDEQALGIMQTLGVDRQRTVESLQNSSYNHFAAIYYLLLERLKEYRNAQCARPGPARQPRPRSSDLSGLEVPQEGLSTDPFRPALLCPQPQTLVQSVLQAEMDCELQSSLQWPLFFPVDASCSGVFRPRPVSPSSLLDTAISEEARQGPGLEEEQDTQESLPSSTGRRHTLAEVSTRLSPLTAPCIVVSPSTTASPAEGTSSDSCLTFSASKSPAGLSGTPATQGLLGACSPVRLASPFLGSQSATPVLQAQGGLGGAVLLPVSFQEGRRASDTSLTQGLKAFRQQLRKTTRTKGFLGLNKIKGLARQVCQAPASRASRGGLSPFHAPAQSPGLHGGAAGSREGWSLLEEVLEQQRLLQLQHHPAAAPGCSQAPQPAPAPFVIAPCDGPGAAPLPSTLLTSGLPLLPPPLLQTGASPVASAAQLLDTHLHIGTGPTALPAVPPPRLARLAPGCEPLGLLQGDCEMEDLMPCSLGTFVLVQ

## CC(=O)c1cc(-c2ccccc2OCC2CC2)c2ncccn12
[1]
  % of control: 103%

## Cc1cc(CN)cc(C)c1-c1ncn(C)c1-c1cncn1C
[2]; at 1 µM
  % activity: > 90%
[2]; at 10 µM
  % activity: > 80%

## CCC(=O)N1CCN(c2ccc(-n3c(=O)ccc4cnc5ccc(-c6cnc7ccccc7c6)cc5c43)cc2C(F)(F)F)CC1
[3]
  % of control: 98%

## O[C@H]1CC[C@H](Nc2ncc3nc(Nc4c(F)cc(F)cc4F)n([C@H]4CCOC4)c3n2)CC1
[4]
  % of control: 100%
[5]
  % of control: 100%

## CN(C)CCOc1ccc(-c2nc(-c3ccncc3)c(-c3ccc4c(c3)CC/C4=N\O)[nH]2)cc1
[6]
  % of control: 100%
[7]
  % of control: 100%

## C=CC(=O)Nc1cccc(C(=O)Nc2ccc(Nc3cc(-c4[nH]c(SC)nc4C)ccn3)cc2)c1
[8]; at 1 µM
  % of control: 92%
[8]; at 5 µM
  % of control: 95%
